Tests used:
Experiment in all cases: CelltiterGlo viability cell assay
Format in all cases: cell-based
HCC1806 = conditions: up to 30 μM; days 3 and 6; Prdm9 expressing line
Procedure: (§1) Supplementary Figure 13. […] Viability of
(§2) (a) Multiple Myeloma lines and (b) Breast Cancer cell lines following 3 or 6 days treatment with […]
(§3) manufacturer’s instructions as described in the Supplementary methods. Data are normalized to DMSO control. N=3 biological replicates, +/- SEM. Source data are provided as a Source Data […]
(§4) CelltiterGlo viability cell assay
(§5) Cells were seeded in 96 well plates at per-well densities of 10000 (MDA-MB436, ATCC-HTB130), 15000 (8226, kind gift from Rodger Tiedemann, Princess Margaret Cancer Centre), […]
(§6) kind gift from Rodger Tiedemann, Princess Margaret Cancer Centre) and 50000 (CAL851, kind gift from Mathieu Lupien, Princess Margaret Cancer Centre) and were treated at increasing concentrations of compounds ranging from 0.01 μM to 30 μM and assessed for proliferation using CelltiterGlo (Promega) following manufacturer’s instructions, as readout on days 3 and 6 as indicated. All cell lines were mycoplasma negative, as determined by MycoAlert™ Mycoplasma Detection Kit(Lonza). […]

SKMM2 = conditions: up to 30 μM; days 3 and 6; Prdm9 expressing line
Procedure: as §1, §2, §3, §4, §5, §6

CAL851 = conditions: up to 30 μM; days 3 and 6; Prdm9 expressing line
Procedure: as §1, §2, §3, §4, §5, §6

MDA-MB-436 = conditions: up to 30 μM; days 3 and 6; matched control line
Procedure: as §1, §2, §3, §4, §5, §6

RPMI-8226 = conditions: up to 30 μM; days 3 and 6; matched control line
Procedure: as §1, §2, §3, §4, §5, §6

HCC1143 = conditions: up to 30 μM; days 3 and 6; matched control line
Procedure: as §1, §2, §3, §4, §5, §6

Measured: Effect on proliferation (in words)

COc1cc(OC)cc(-c2noc(N3CCN(C)C4(CCN(c5ccccc5)CC4)C3)n2)c1 [MRK-740-NC]
did not have any significant effect: all assays above
